From patent US20220280603A1, “TARGETING OF THE CYTOSKELETON AS A THERAPEUTIC APPROACH FOR NEURODEGENERATIVE DISEASE” (University of Massachusetts, priority 2019, published 2022)
“Also recorded” adds a separate entry of the source.

What was measured:
[1] = tested on: Neurofilament L mRNA in MNs expressing C71G PFN1; test: Fluorescence in situ hybridization of Neurofilament L mRNA; format: cell-based, mouse; conditions: IMM01 vs DMSO
Experimental: Primary motor neurons (MNs) were isolated from E12.5 mouse embryonic spinal cords dissociated in 0.1% trypsin (Worthington) at 37° C. for 12 minutes. MNs were purified using a 6% Optiprep (Sigma-Aldrich) density gradient and plated on glass coverslips coated with 0.5 g/L poly-ornithine (Sigma-Aldrich) and laminin (Thermo Fisher). Cells were grown at 37° C. and 5% CO2 in Neurobasal medium (Thermo Fisher) supplemented with 0.25% Glutamax, 2% B27, 2% horse serum, and 10 ng/ml BDNF, GDNF, and CNTF. MNs at 2 days in vitro (DIV) were transfected using 1.75 μl NeuroMag reagent (OZ Biosciences)+0.5 μg DNA. Complete growth medium was replaced with serum free neurobasal medium 1 hour prior and after transfection. The paramagnetic nanobeads used for transfection can linger inside the cell and in the extracellular space for several days and can be detected as DAPI positive dots. The V5-PFN1 plasmids were described in Wu, C. […]
Immunofluorescence images were deconvolved using an adaptative blind deconvolution algorithm (Autoquant X3, Media Cybernetics) before analysis. To measure fluorescence intensities, the signals were thresholded and the resulting integrated densities were normalized on the area of the selected region (e.g. cell body, nucleus). […] For NCT dynamics, the fluorescence intensity of S-mCherry was measured in the nucleus using ImageJ and normalized to the background for every time point. […]

[2] = tested on: primary motor neurons (MNs); test: Cell death / apoptosis in treated motor neurons; format: cell-based, mouse
Experimental: (§1) Primary motor neurons (MNs) were isolated from E12.5 mouse embryonic spinal cords dissociated in 0.1% trypsin (Worthington) at 37° C. for 12 minutes. MNs were purified using a 6% Optiprep (Sigma-Aldrich) density gradient and plated on glass coverslips coated with 0.5 g/L poly-ornithine (Sigma-Aldrich) and laminin (Thermo Fisher). Cells were grown at 37° C. and 5% CO2 in Neurobasal medium (Thermo Fisher) supplemented with 0.25% Glutamax, 2% B27, 2% horse serum, and 10 ng/ml BDNF, GDNF, and CNTF. MNs at 2 days in vitro (DIV) were transfected using 1.75 μl NeuroMag reagent (OZ Biosciences)+0.5 μg DNA. Complete growth medium was replaced with serum free neurobasal medium 1 hour prior and after transfection. The paramagnetic nanobeads used for transfection can linger inside the cell and in the extracellular space for several days and can be detected as DAPI positive dots. The V5-PFN1 plasmids were described in Wu, C. H. et al. Mutations in the profilin 1 gene cause familial amyotrophic lateral sclerosis. Nature 488, 499-503 (2012). The (G4C2)80 (SEQ ID NO:12). construct was described in Almeida, S. et al. Modeling key pathological features of frontotemporal dementia with C9ORF72 repeat expansion in iPSC-derived human neurons. Acta Neuropathol 126, 385-399 (2013). […]

[3] = tested on: primary motor neurons (MNs) expressing C71G PFN1; test: Immunofluorescence of nuclear pore/NCT factors and TDP-43 in motor neurons expressing mutant PFN1; format: cell-based, mouse; conditions: vs DMSO
Experimental: as §1, with “(2013). For the GFP-PFN1 constructs, WT or mutant PFN1 was PCR amplified from the V5 constructs and cloned in the pEGFP-C1 backbone using BamHI sites. The FH1-FH2 domains of murine formin mDia1 (amino acid residues 553-1192) were PCR amplified using specific primers and cloned into the pEGFP-C1 plasmid using XhoI and BamHI restriction sites. GFP or GFP-mDia1 were co-transfected in a 1:2 ratio with PFN1 or C9ORF72 plasmids.” for “(2013).”
(§2) Immunofluorescence images were deconvolved using an adaptative blind deconvolution algorithm (Autoquant X3, Media Cybernetics) before analysis. To measure fluorescence intensities, the signals were thresholded and the resulting integrated densities were normalized on the area of the selected region (e.g. cell body, nucleus). […]

[4] = tested on: fibroblasts from ALS patients carrying C9ORF72 repeat expansions; test: FISH for C9ORF72 RNA nuclear foci in patient fibroblasts; format: cell-based, human; conditions: IMM01 treatment
Experimental: Fibroblasts were obtained from skin biopsies of 3 ALS patients carrying mutations in C9ORF72 gene and of 3 healthy donors, sex- and age-matched with ALS cases, after informed consent and approval by the IRCCS Istituto Auxologico Italiano ethics committee. C9ORF72 mutation was validated in primary fibroblasts by repeat-primed PCR and repeat expansion size determined by Southern blot analysis (range 600-1500 units). Fibroblasts were grown in RPMI 1640 medium (EuroClone) containing 2 g/L glucose and supplemented with 10% FBS (Sigma Aldrich), 2 mM L-glutamine, 2.5 μg/ml amphotericin B (Sigma Aldrich), 100 units/ml penicillin and 100 μg/ml streptomycin (Gibco). 10,000 cell/well were seeded on glass coverslip in 24-well plates and after 24 hours, 50% of medium was replaced with fresh medium and IMM01 (Sigma Aldrich) at the final concentration of 0.1 μM. After a 24-hour treatment, cells were fixed with 4% paraformaldehyde for 20 minutes, permeabilized with 0.3% Triton X-100/1×PBS for 5 minutes and processed for immunofluorescence as described below.
Motor neurons were fixed in 4% RNase-free paraformaldehyde for 15 minutes and stored in 70% ethanol at 4° C. overnight. […]

[5] = tested on: fibroblasts from ALS patients carrying C9ORF72 repeat expansions; test: Immunofluorescence of RanGAP1 and FG-Nups in C9ORF72-ALS patient fibroblasts; format: cell-based, human; conditions: 0.1 μM IMM01 for 24 hours, vs DMSO
Experimental: Fibroblasts were obtained from skin biopsies of 3 ALS patients carrying mutations in C9ORF72 gene and of 3 healthy donors, sex- and age-matched with ALS cases, after informed consent and approval by the IRCCS Istituto Auxologico Italiano ethics committee. C9ORF72 mutation was validated in primary fibroblasts by repeat-primed PCR and repeat expansion size determined by Southern blot analysis (range 600-1500 units). Fibroblasts were grown in RPMI 1640 medium (EuroClone) containing 2 g/L glucose and supplemented with 10% FBS (Sigma Aldrich), 2 mM L-glutamine, 2.5 μg/ml amphotericin B (Sigma Aldrich), 100 units/ml penicillin and 100 μg/ml streptomycin (Gibco). […]
Immunofluorescence images were deconvolved using an adaptative blind deconvolution algorithm (Autoquant X3, Media Cybernetics) before analysis. To measure fluorescence intensities, the signals were thresholded and the resulting integrated densities were normalized on the area of the selected region (e.g. cell body, nucleus). […] For NCT dynamics, the fluorescence intensity of S-mCherry was measured in the nucleus using ImageJ and normalized to the background for every time point. […] For the analysis of axonal fluorescence intensities, a 100 μm long region of the proximal axon was measured in all conditions. Axon lengths were measured using the ImageJ plugin NeuronJ 60. […]

[6] = tested on: primary motor neurons (MNs) expressing C71G PFN1; test: Axon length and outgrowth analysis; format: cell-based, mouse
Experimental: Motor neurons were co-transfected as outlined above with green fluorescent protein (GFP) and V5-tagged PFN1 constructs in a 1:2 ratio. KPT-276 (50 nM) or equal volumes of DMSO were added to the culture medium 1 day after transfection and maintained throughout the experiment for a total of 3 days. Cells were fixed and stained to detect V5-PFN1 expression 4 days after transfection. Cells were imaged as individual focal planes using a 10× lens. GFP was used to identify transfected cells and highlight the whole cell structure. […]
Immunofluorescence images were deconvolved using an adaptative blind deconvolution algorithm (Autoquant X3, Media Cybernetics) before analysis. To measure fluorescence intensities, the signals were thresholded and the resulting integrated densities were normalized on the area of the selected region (e.g. cell body, nucleus). […] For NCT dynamics, the fluorescence intensity of S-mCherry was measured in the nucleus using ImageJ and normalized to the background for every time point. […] For the analysis of axonal fluorescence intensities, a 100 μm long region of the proximal axon was measured in all conditions. Axon lengths were measured using the ImageJ plugin NeuronJ 60. […] The rate of axon outgrowth was measured using the ImageJ plugin MTrackJ by tracking the movement of the growth cone in all fields. […]

[7] = tested on: primary motor neurons (MNs); test: Actin depolymerization assay: immunofluorescence of NCT factors in Latrunculin A treated motor neurons; format: cell-based, mouse; conditions: 0.1 mg/L Latrunculin A for 3 days
Experimental: Primary motor neurons (MNs) were isolated from E12.5 mouse embryonic spinal cords dissociated in 0.1% trypsin (Worthington) at 37° C. for 12 minutes. MNs were purified using a 6% Optiprep (Sigma-Aldrich) density gradient and plated on glass coverslips coated with 0.5 g/L poly-ornithine (Sigma-Aldrich) and laminin (Thermo Fisher). Cells were grown at 37° C. and 5% CO2 in Neurobasal medium (Thermo Fisher) supplemented with 0.25% Glutamax, 2% B27, 2% horse serum, and 10 ng/ml BDNF, GDNF, and CNTF. MNs at 2 days in vitro (DIV) were transfected using 1.75 μl NeuroMag reagent (OZ Biosciences)+0.5 μg DNA. Complete growth medium was replaced with serum free neurobasal medium 1 hour prior and after transfection. The paramagnetic nanobeads used for transfection can linger inside the cell and in the extracellular space for several days and can be detected as DAPI positive dots. The V5-PFN1 plasmids were described in Wu, C. H. et al. Mutations in the profilin 1 gene cause familial amyotrophic lateral sclerosis. Nature 488, 499-503 (2012). The (G4C2)80 (SEQ ID NO:12). construct was described in Almeida, S. et al. Modeling key pathological features of frontotemporal dementia with C9ORF72 repeat expansion in iPSC-derived human neurons. Acta Neuropathol 126, 385-399 (2013). For the GFP-PFN1 constructs, WT or mutant PFN1 was PCR amplified from the V5 constructs and cloned in the pEGFP-C1 backbone using BamHI sites. The FH1-FH2 domains of murine formin mDia1 (amino acid residues 553-1192) were PCR amplified using specific primers and cloned into the pEGFP-C1 plasmid using XhoI and BamHI restriction sites. GFP or GFP-mDia1 were co-transfected in a 1:2 ratio with PFN1 or C9ORF72 plasmids. Mock transfection controls were performed by subjecting the cells to all the steps of transfection without adding any plasmid DNA. For actin depolymerization assays, 2 DIV MNs were treated with 0.1 mg/L Latrunculin A (Cayman) for 3 days. For nuclear export inhibition, MNs were treated with 50 nM KPT-276 (Selleck) or equal volume of DMSO (Sigma Aldrich) 1 day after transfection. For formin induction, MNs were treated with 0.1 μM IMM01 (EMD Millipore) for 24 hr before fixation at 6 DIV.
Cells were fixed with 4% paraformaldehyde for 15 minutes. Fixed motor neurons were treated with hot 10 mM citrate buffer, pH 6 for 20 minutes before permeabilization with 0.2% Triton-X 100 for 5 minutes. […]
as §2

CC(C)(C)NC(=S)N/N=C/c1ccc(O)cc1O [IMM01]
axonal localization of Nef1 mRNA [1]: rescue the defects in the axonal localization; also recorded: rescue of mislocalization | induction of apoptosis ([2]; primary MNs, 0.1 μM IMM01 for 24 hours): No induction of apoptosis was detected | FG-Nups localization at the nuclear envelope ([3]; 0.1 μM IMM01 for 24 hours): rescue of FG-Nups defective localization at the nuclear envelope; also recorded: rescue of mislocalization | Ran gradient (Ran localization) ([3]; 0.1 μM IMM01 for 24 hours): rescue of mislocalization | propensity of the cell to form C9ORF72-positive nuclear foci [4]: without changes to the propensity of the cell to form C9ORF72-positive nuclear foci | localization of FG-Nups [5]: rescued defects in the localization; also recorded: significantly rescued the defects | localization of RanGAP1 [5]: rescued defects in the localization; also recorded: significantly rescued the defects

O=C(/C=C\n1cnc(-c2cc(C(F)(F)F)cc(C(F)(F)F)c2)n1)N1CC(F)(F)C1 [KPT-276]
axon length ([6]; 50 nM KPT-276 for 3 days, vs DMSO): fully rescued the defect | rate of axon growth (outgrowth) by live cell imaging ([6]; 50 nM KPT-276 ~18-24 hours, imaged over 1 hour): full rescue of the outgrowth defects | C:N ratio of TDP-43 (TDP-43 cytoplasmic mislocalization) ([3]; 50 nM KPT-276 6 hours prior to fixation): fully rescue TDP-43 cytoplasmic mislocalization; also recorded: rescues C:N ratio of TDP-43

C/C1=C/C(=O)O[C@@H]2C[C@@H](CC[C@H](C)/C=C\C=C\CC1)O[C@@](O)([C@@H]1CSC(=O)N1)C2 [Latrunculin A]
localization of FG-Nups [7]: severe mislocalization | localization of Ran [7]: severe mislocalization; also recorded: disrupted | localization of RanGAP1 [7]: severe mislocalization; also recorded: disrupted | nuclear morphology [7]: smaller nuclei with condensed DNA | cell death or apoptosis ([2]; MNs, Latrunculin A treatment conditions (0.1 mg/L, 3 days), data not shown): No increased cell death or apoptosis was observed
